According to publication PMC6297244, “Synthesis and Kinetic evaluation of an azido analogue of methylerythritol phosphate: a Novel Inhibitor of E. coli YgbP/IspD” (Scientific Reports, 2018):

Biological target: T1, YgbP/IspD (Escherichia coli, UniProt Q46893)
T1 sequence (Q46893 2-236): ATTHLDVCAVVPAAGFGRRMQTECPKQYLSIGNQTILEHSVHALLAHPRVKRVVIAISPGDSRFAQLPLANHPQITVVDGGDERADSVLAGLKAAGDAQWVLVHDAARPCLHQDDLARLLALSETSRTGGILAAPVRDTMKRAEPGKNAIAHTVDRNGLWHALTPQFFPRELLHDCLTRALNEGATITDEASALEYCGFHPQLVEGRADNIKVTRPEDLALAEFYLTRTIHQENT
Assay: steady-state inhibition kinetics, malachite green phosphate assay coupled to inorganic pyrophosphatase
Format: biochemical

## [N-]=[N+]=NC[C@](O)(CO)[C@H](O)COP(=O)(O)O [compound 11, MEPN3]
  Ki: 21 ± 3 µM
